Series [1] concerns Alternaria alternata. In words: Alternaria alternata in vitro cell test. The format is cell-based. The note with it: 120 h, 20 ppm of active ingredient, liquid culture, 5 days incubation, spectrometric measurement of mycelium growth, read-out: efficacy (inhibition of fungal growth). The protocol: (§1) B-6. Alternaria alternata In Vitro Cell Test [table] Fungicides were solubilized in DMSO and the solution used to prepare the required range of concentrations. The final concentration of DMSO used in the assay was ≤1%. A spore suspension of A. alternata was prepared and diluted to the desired spore density. Fungicides were evaluated for their ability to inhibit spore germination and mycelium growth in liquid culture assay. The compounds were added in the desired concentration to the culture medium with spores. After 5 days incubation, fungi-toxicity of compounds was determined by spectrometric measurement of mycelium growth. Inhibition of fungal growth was determined by comparing the absorbance values in wells containing the fungicides with the absorbance in control wells without fungicides.

Series [2] concerns Colletotrichum lindemuthianum. Description: B-8. Colletotrichum lindemuthianum in vitro cell test. It counts as cell-based. The conditions noted are these: 144 h, 20 ppm of active ingredient, 6 days incubation, liquid culture, absorbance, read-out: efficacy (inhibition of fungal growth). The protocol: as §1, with “B-8. Colletotrichum lindemuthianum In” for “B-6. Alternaria alternata In”, “of C. lindemuthianum” for “of A. alternata”, “inhibit spores” for “inhibit spore”, “After 6” for “After 5”

For series [3], the system named is Botrytis cinerea. In words: In vivo preventive test on Botrytis cinerea (grey mould). The note with it: 500 ppm of active ingredient, preventive spray on gherkin or cabbage, evaluated 4 to 5 days after inoculation, read-out: efficacy. As for the experimental part: B-2. In Vivo Preventive Test on Botrytis cinerea (Grey Mould) [table] The active ingredients were made soluble and homogenized in a mixture of Dimethyl sulfoxide/Acetone/Tween® 80 and then diluted in water to the desired concentration. The young plants of gherkin or cabbage were treated by spraying the active ingredient prepared as described above. Control plants were treated only with an aqueous solution of Acetone/Dimethyl sulfoxide/Tween® 80. After 24 hours, the plants were contaminated by spraying the leaves with an aqueous suspension of Botrytis cinerea spores. The contaminated gherkin plants were incubated for 4 to 5 days at 17° C. and at 90% relative humidity. The contaminated cabbage plants were incubated for 4 to 5 days at 20° C. and at 100% relative humidity.

The test system of series [4] is Alternaria brassicae. In words: In vivo preventive test on Alternaria brassicae (leaf spot on radish or cabbage). The conditions noted are these: 500 ppm of active ingredient, preventive spray on radish or cabbage, evaluated 3 to 4 days after inoculation, read-out: efficacy. The protocol: B-1. In Vivo Preventive Test on Alternaria brassicae (Leaf Spot on Radish or Cabbage) [table] The active ingredients were made soluble and homogenized in a mixture of Dimethyl sulfoxide/Acetone/Tween® 80 and then diluted in water to the desired concentration. The young plants of radish or cabbage were treated by spraying the active ingredient prepared as described above. Control plants were treated only with an aqueous solution of Acetone/Dimethyl sulfoxide/Tween® 80. After 24 hours, the plants were contaminated by spraying the leaves with an aqueous suspension of Alternaria brassicae spores. The contaminated radish or cabbage plants were incubated for 3 to 4 days at 20° C. and at 100% relative humidity.

A short description of series [5]: Measurement of Log P values by HPLC on reversed phase columns (EEC directive 79/831 Annex V.A8). The format is physicochemical. The protocol:
A-1.1. Measurement of Log P Values
Measurement of Log P values as provided herein was performed according to EEC directive 79/831 Annex V.A8 by HPLC (High Performance Liquid Chromatography) on reversed phase columns with the following methods:
^[a] Log P value is determined by measurement of LC-UV, in an acidic range, with 0.1% formic acid in water and acetonitrile as eluent (linear gradient from 10% acetonitrile to 95% acetonitrile).
^[b] Log P value is determined by measurement of LC-UV, in a neutral range, with 0.001 molar ammonium acetate solution in water and acetonitrile as eluent (linear gradient from 10% acetonitrile to 95% acetonitrile).
^[c] Log P value is determined by measurement of LC-UV, in an acidic range, with 0.1% phosphoric acid and acetonitrile as eluent (linear gradient from 10% acetonitrile to 95% acetonitrile).
If more than one Log P value is available within the same method, all the values are given and separated by “+”. […]

Where [6] appears, read: reversed phase HPLC column, method [a]: LC-UV, acidic range, 0.1% formic acid in water and acetonitrile as eluent.
Where [7] appears, read: method [a]: LC-UV, acidic range, 0.1% formic acid in water and acetonitrile as eluent.

With `O=C(NCC(F)(F)c1ccc(Cl)cn1)c1c(Oc2cccc(C(F)F)c2)nnc2ccccc12` [I-036], the inhibition at 20 ppm in series [1] and in series [2] was 90 to 100% throughout. Moreover, the pest or weed control at 500 ppm in series [3] and in series [4] was 90 to 100% in each case. Further, the chromatographic logP in series [5] (setting [6]) stood at 3.2.

As for `Cc1ccc(C(F)(F)CNC(=S)c2c(Oc3cccc(Cl)c3)nnc3ccccc23)c(C)c1` [I-158, 3-(3-chlorophenoxy)-N-[2-(2,4-dimethylphenyl)-2,2-difluoro-ethyl]cinnoline-4-carbothioamide], the inhibition at 20 ppm in series [1] and in series [2] was 90 to 100% in each case. The pest or weed control at 500 ppm in series [4] is 90 to 100%. In addition, the chromatographic logP in series [5] (setting [6]) was found to be 5.01.

`Cc1ccc(CCNC(=O)c2c(Oc3cccc(C(F)(F)F)c3)nnc3cnccc23)c(C)c1` [I-011]: in series [1], the inhibition at 20 ppm is 90 to 100%. Further, the pest or weed control at 500 ppm was in the range of 90 to 100% in series [3] and 80 to 89% in series [4]. In series [5] (setting [6]), the chromatographic logP stood at 3.88.

Take `Cc1ccc2c(C(=O)NCC(F)(F)c3ccc(Br)cc3Cl)c(Oc3cccc(C(F)(F)F)c3)nnc2c1` [I-045]: the inhibition at 20 ppm in series [1] and in series [2] was 90 to 100% each time. For the same compound, the pest or weed control at 500 ppm in series [3] and in series [4] was 90 to 100% each time. In series [5] (setting [6]), the chromatographic logP is 4.64.

For the compound `N#Cc1cccc(Oc2nnc3ccccc3c2C(=O)NC[C@H](F)c2ccc(Br)cc2Cl)c1` (racemic) [I-031], the inhibition at 20 ppm in series [1] and in series [2] was 90 to 100% each time. Besides, the pest or weed control at 500 ppm in series [3] and in series [4] was 90 to 100% in each case. In series [5] (setting [6]), this compound displayed a chromatographic logP of 3.65.

Consider `O=C(NCC(F)(F)c1ccc(Br)cc1Cl)c1c(Oc2ccc(Cl)cc2)nnc2ccccc12` [I-019], for which, in series [1], the inhibition at 20 ppm was in the range of 80 to 89%. The pest or weed control at 500 ppm in series [3] was 90 to 100%; in series [4], 70 to 79%. Also, the chromatographic logP in series [5] (setting [6]) came out at 4.46.

As for `O=C(N/C=C\c1ccccc1)c1c(Oc2cccc(C(F)(F)F)c2)cnc2ccccc12` [I-001], the inhibition at 20 ppm in series [1] lay in the range of 70 to 79%. Also, in series [3], the pest or weed control at 500 ppm lay within 90 to 100%. In addition, in series [5] (setting [6]), the chromatographic logP is 4.17.

For the compound `Cc1ccc(CCNC(=O)c2c(Oc3cccc(C(F)(F)F)c3)nnc3c(C)cccc23)c(C)c1` [I-005], the inhibition at 20 ppm in series [1] lay within 90 to 100%; in series [2], 80 to 89%. In series [3], the pest or weed control at 500 ppm was in the range of 90 to 100%. The compound further registered a chromatographic logP in series [5] (setting [6]) of 4.69.

As for `N#Cc1cccc(Oc2nnc3ccccc3c2C(=O)NCC(F)(F)c2ccc(Cl)cc2)c1` [I-160], the inhibition at 20 ppm in series [1] and in series [2] was 90 to 100% each time. Besides, the pest or weed control at 500 ppm in series [4] was 80 to 89%. The chromatographic logP in series [5] (setting [6]) stood at 3.33.

On to `O=C(NCC(F)(F)c1ccc(Cl)cn1)c1c(Oc2cccc(C(F)(F)F)c2)cnc2ccccc12` [I-038], for which the inhibition at 20 ppm in series [2] is 70 to 79%. The same compound showed a chromatographic logP in series [5] (setting [6]) of 3.74.

Take `O=C(NCC(F)(F)c1ccc(Cl)cc1)c1c(Oc2ccc(Cl)cc2)nnc2ccccc12` [I-018]: the inhibition at 20 ppm in series [1] lay within 80 to 89%. In addition, the pest or weed control at 500 ppm in series [3] lay in the range of 90 to 100%. In addition, the chromatographic logP in series [5] (setting [6]) came out at 3.96.

For `O=C(NC[C@@H](F)c1ccc(Cl)c(Cl)c1)c1c(Oc2cccc(Cl)c2)nnc2ccccc12` (racemic) [I-051], the inhibition at 20 ppm in series [1] and in series [2] was 90 to 100% in each case. The pest or weed control at 500 ppm in series [4] lay in the range of 70 to 79%. Further, in series [5] (setting [6]), the chromatographic logP is 4.23.

Regarding `N#Cc1cccc(Oc2nnc3ccccc3c2C(=O)NCC(F)(F)c2ccc(Br)cc2Cl)c1` [I-032], the inhibition at 20 ppm in series [1] and in series [2] was 90 to 100% throughout. For the same compound, the pest or weed control at 500 ppm in series [3] fell in the range of 90 to 100%. In series [5] (setting [6]), the chromatographic logP is 3.77.

As to `Cc1ccc(CCNC(=O)c2c(Oc3cccc(C(F)(F)F)c3)nnc3cc(F)ccc23)c(C)c1` [I-007], the inhibition at 20 ppm in series [1] and in series [2] was 90 to 100% each time. The pest or weed control at 500 ppm in series [3] was in the range of 90 to 100%. The same compound gave a chromatographic logP in series [5] (setting [6]) of 4.4.

`O=C(N[C@H]1CCCc2cc(Cl)sc21)c1c(Oc2cccc(C(F)(F)F)c2)cnc2ccccc12` (racemic) [I-040]: the inhibition at 20 ppm in series [1] and in series [2] was 90 to 100% each time. The pest or weed control at 500 ppm in series [3] is 80 to 89%. This compound gave a chromatographic logP in series [5] (setting [6]) of 4.54.

In series [5] (setting [6]), `Cc1ccc(C(F)(F)CNC(=O)c2c(Oc3ccc(Cl)cc3)nnc3ccccc23)c(C)c1` [I-200] had a chromatographic logP of 4.23.

For `Cc1ccc(C(F)(F)CNC(=O)c2c(Oc3cccc(C#N)c3)nnc3ccccc23)c(C)c1` [I-030], the inhibition at 20 ppm in series [1] and in series [2] was 90 to 100% each time. Besides, in series [3], the pest or weed control at 500 ppm is 90 to 100%. The same compound yielded a chromatographic logP in series [5] (setting [6]) of 3.58.

Consider `CCOC(=O)c1c(Oc2cccc(C(F)(F)F)c2)nnc2cc(F)ccc12` [1-58], for which, in series [5] (setting [6]), the chromatographic logP was determined as 4.16.

For the compound `N#Cc1cccc(Oc2nnc3ccccc3c2C(=O)NCC(F)(F)c2ccc(Cl)cn2)c1` [I-248], in series [2], the inhibition at 20 ppm fell in the range of 70 to 79%. For the same compound, the chromatographic logP in series [5] (setting [6]) was found to be 2.84; in series [5] (reversed phase HPLC column, method [b]: LC-UV, neutral range, 0.001 molar ammonium acetate solution in water and acetonitrile as eluent), 2.94.

As to `COc1ccc2c(C(=O)NCCc3ccc(C)cc3C)c(Oc3cccc(C(F)(F)F)c3)nnc2c1` [I-009], in series [1], the inhibition at 20 ppm fell in the range of 90 to 100%. In series [5] (setting [6]), this compound yielded a chromatographic logP of 4.3.

`O=C(O)c1c(Oc2cccc(C3CC3)c2F)cnc2ccccc12` [1-51] displayed a chromatographic logP in series [5] (setting [7]) of 2.71.

Take `CCOC(=O)c1c(Oc2cccc(C(F)(F)F)c2)nnc2cc(C)ccc12` [1-52]: in series [5] (setting [6]), the chromatographic logP was found to be 4.38.

`COC(=O)c1c(Oc2cccc(C(F)(F)F)c2)nnc2ccccc12` [1-02] showed a chromatographic logP in series [5] (setting [7]) of 3.62.

For the compound `C[C@H](NC(=O)c1c(Oc2cccc(C(F)(F)F)c2)nnc2ccccc12)c1cccc(C(F)(F)F)c1` (racemic) [I-022], the inhibition at 20 ppm in series [1] fell in the range of 80 to 89%; in series [2], 70 to 79%. The pest or weed control at 500 ppm in series [3] lay within 90 to 100%. Moreover, the chromatographic logP in series [5] (setting [6]) amounted to 4.03.

Consider `O=C(O)c1c(Oc2ccc(Cl)cc2)nnc2ccccc12` [1-16], for which, in series [5] (setting [6]), the chromatographic logP amounted to 2.12.

`Cc1ccc(C(F)(F)CNC(=O)c2c(Br)cnc3nccnc23)c(C)c1` [3-01] yielded a chromatographic logP in series [5] (setting [6]) of 2.56.

Turning to `CCOC(=O)c1c(Oc2cccc(Cl)c2F)nnc2c1CCCC2` [1-26, ethyl 3-(3-chloro-2-fluoro-phenoxy)-5,6,7,8-tetrahydrocinnoline-4-carboxylate], the chromatographic logP was 3.76 in series [5] (setting [7]); 3.56 in series [5] (method [b]: LC-UV, neutral range, 0.001 molar ammonium acetate solution in water and acetonitrile as eluent).

Turning to `O=C(N/C=C/c1ccccc1)c1c(Oc2cccc(C(F)(F)F)c2)cnc2ccccc12` [I-217], in series [5] (setting [6]), the chromatographic logP came to 3.92.

On to `O=C(O)c1c(Oc2cccc(C(F)(F)F)c2)nnc2c1COCC2` [1-33], for which the chromatographic logP in series [5] (setting [6]) was 1.38.

For the compound `Cc1ccc2c(C(=O)N[C@H]3CCCc4cc(Br)ccc43)c(Oc3cccc(C(F)(F)F)c3)nnc2c1` (racemic) [I-181], the inhibition at 20 ppm in series [1] lay in the range of 80 to 89%. Further, in series [5] (setting [6]), the chromatographic logP was found to be 4.88.

Broadly, the inhibition is the percentage by which the read-out fell short of the control. The term chromatographic logP denotes a lipophilicity value derived from retention on a column. Higher therefore signals a more lipophilic compound.

These data come from patent US20230192617A1, “AZABICYCLIC(THIO)AMIDES AS FUNGICIDAL COMPOUNDS” (Bayer CropScience Aktiengesellschaft, priority 2020, published 2023).
